Data from the NIST ThermoML archive (doi:10.1016/j.fluid.2005.05.023).

Assay: xn = mol fraction of the nth substance listed
Conditions: Liquid, Vibrating tube method

Cc1ccccc1 [toluene] + CCO
mass density [kg/m3]
Conditions | 100 kPa | 5000 kPa | 10000 kPa | 15000 kPa | 20000 kPa | 25000 kPa | 30000 kPa | 35000 kPa | 40000 kPa | 45000 kPa
333.15 K, x2 = 0.375 | – | – | – | – | – | – | – | – | – | 846
333.15 K, x2 = 0.5 | – | – | – | – | – | – | – | – | – | 838.6
333.15 K, x2 = 0.625 | – | – | – | – | – | – | – | – | – | 830.1
333.15 K, x2 = 0.75 | – | – | – | – | – | – | – | – | – | 820.1
333.15 K, x2 = 0.875 | – | – | – | – | – | – | – | – | – | 808
343.15 K, x2 = 0 | 819.2 | 824.1 | 829 | 833.5 | 837.9 | 842.1 | 846 | 849.9 | 853.5 | 857
343.15 K, x2 = 0.125 | 811.9 | 817 | 821.9 | 826.6 | 831.1 | 835.3 | 839.3 | 843.2 | 846.9 | 850.5
343.15 K, x2 = 0.25 | 805.3 | 810.5 | 815.5 | 820.3 | 824.8 | 829 | 833.1 | 837 | 840.8 | 844.4
343.15 K, x2 = 0.375 | 798.5 | 803.7 | 808.8 | 813.6 | 818.1 | 822.4 | 826.5 | 830.5 | 834.2 | 837.9
343.15 K, x2 = 0.5 | 790.7 | 796 | 801.1 | 806 | 810.6 | 814.9 | 819 | 823 | 826.8 | 830.5
343.15 K, x2 = 0.625 | 781.9 | 787.3 | 792.5 | 797.4 | 802 | 806.3 | 810.5 | 814.5 | 818.3 | 822
343.15 K, x2 = 0.75 | 771.8 | 777.2 | 782.5 | 787.4 | 792 | 796.4 | 800.6 | 804.6 | 808.5 | 812.2
343.15 K, x2 = 0.875 | 759.6 | 765 | 770.3 | 775.3 | 780 | 784.4 | 788.6 | 792.7 | 796.5 | 800.2
353.15 K, x2 = 0 | 809.4 | 814.7 | 819.9 | 824.7 | 829.3 | 833.7 | 837.9 | 841.9 | 845.7 | 849.4
353.15 K, x2 = 0.125 | 801.7 | 807.2 | 812.5 | 817.4 | 822.2 | 826.7 | 830.9 | 835 | 838.9 | 842.7
353.15 K, x2 = 0.25 | – | 800.4 | 805.8 | 810.9 | 815.6 | 820.2 | 824.5 | 828.6 | 832.6 | 836.4
353.15 K, x2 = 0.375 | – | 793.4 | 798.9 | 804 | 808.8 | 813.4 | 817.8 | 821.9 | 825.9 | 829.7
353.15 K, x2 = 0.5 | – | 785.7 | 791.3 | 796.4 | 801.3 | 805.9 | 810.3 | 814.5 | 818.5 | 822.3
353.15 K, x2 = 0.625 | – | 777 | 782.6 | 787.9 | 792.8 | 797.4 | 801.8 | 806 | 810 | 813.9
353.15 K, x2 = 0.75 | – | 767.1 | 772.7 | 778 | 782.9 | 787.6 | 792 | 796.3 | 800.3 | 804.2
353.15 K, x2 = 0.875 | – | 755.1 | 760.8 | 766.1 | 771.1 | 775.8 | 780.3 | 784.5 | 788.6 | 792.4
